# Test system: ATF4 luciferase reporter in HEK293T cells
# Experiment: ATF4-Luc assay (ATF4 luciferase reporter, tunicamycin-treated HEK293T cells)
# Type: cell-based, human
# Conditions: Homo sapiens, HEK-293T; HEK293T cells carrying the ATF4 luciferase reporter, 1 μg/mL tunicamycin, 7 hours
row,Compound,EC50 [nM]
1,"O=C(COc1ccn2nccc2c1)NC12CCC(NC(=O)COc3ccc(Cl)c(F)c3)(CC1)[C@@H](O)C2 [Compound 645, 2-(4-chloro-3-fluorophenoxy)-N-[(2S)-2-hydroxy-4-{2-[(pyrazolo[1,5-a]pyridin-5-yl)oxy]acetamido}bicyclo[2.2.2]octan-1-yl]acetamide]",< 10
2,"CC(=O)O[C@@H]1CC2(NCCOc3ccc(Cl)c(F)c3)CCC1(NC(=O)COc1ccc(Cl)c(F)c1)CC2 [Compound 450, (2R)-1-[2-(4-chloro-3-fluorophenoxy)acetamido]-4-{[2-(4-chloro-3-fluorophenoxy)ethyl]amino}bicyclo[2.2.2]octan-2-yl acetate]",10 to 50
3,"CCc1cc(COCC23CC(NC(=O)COc4ccc(Cl)c(F)c4)(C2)C3)on1 [Compound 610, 2-(4-chloro-3-fluorophenoxy)-N-(3-{[(3-ethyl-1,2-oxazol-5-yl)methoxy]methyl}bicyclo[1.1.1]pentan-1-yl)acetamide]",> 2000
4,"O=C(COc1cccc(OC(F)F)c1)NC12CC(NC(=O)COc3ccc(Cl)c(F)c3)(C1)C2 [Compound 396, 2-(4-chloro-3-fluorophenoxy)-N-(3-{2-[3-(difluoromethoxy)phenoxy]acetamido}bicyclo[1.1.1]pentan-1-yl)acetamide]",10 to 50
5,"Cc1ccccc1CS(=O)(=O)NC12CC(NC(=O)COc3ccc(Cl)c(F)c3)(C1)C2 [Compound 482, 2-(4-chloro-3-fluorophenoxy)-N-(3-{[(2-methylphenyl)methanesulfonyl]amino}bicyclo[1.1.1]pentan-1-yl)acetamide]",> 2000
6,"O=C(/C=C/c1ccc(OC(F)(F)F)cn1)NC12CCC(NC(=O)COc3ccc(Cl)c(F)c3)(C1)C2 [Compound 425, (2E)-N-{4-[2-(4-chloro-3-fluorophenoxy)acetamido]bicyclo[2.1.1]hexan-1-yl}-3-[5-(trifluoromethoxy)pyridin-2-yl]prop-2-enamide]",500 to 2000
7,"O=C(COc1ccc(Cl)cc1)NC12CCC(NC(=O)COc3ccc(F)c(F)c3)(CC1)[C@@H](O)C2 [Compound 618, 2-(4-chlorophenoxy)-N-{(3S)-4-[2-(3,4-difluorophenoxy)acetamido]-3-hydroxybicyclo[2.2.2]octan-1-yl}acetamide]",< 10
8,"O=C(COc1ccc(Cl)c(F)c1)NC12CCC(NC(=O)COc3ccc(F)c(F)c3)(CC1)[C@@H](O)C2 [Compound 587, 2-(4-chloro-3-fluorophenoxy)-N-{(3S)-4-[2-(3,4-difluorophenoxy)acetamido]-3-hydroxybicyclo[2.2.2]octan-1-yl}acetamide]",< 10
9,"O=C(COc1ccc2c(c1)OC(F)(F)O2)NC12CCC(NC(=O)COc3ccc(Cl)c(Cl)c3)(CC1)C(=O)N2 [Compound 604, 2-(3,4-dichlorophenoxy)-N-(1-{2-[(2,2-difluoro-2H-1,3-benzodioxol-5-yl)oxy]acetamido}-3-oxo-2-azabicyclo[2.2.2]octan-4-yl)acetamide]",10 to 50
10,"O=C(COc1ccc(Cl)c(F)c1)NC12CC(NC(=O)Cc3ccc(C(F)(F)F)cc3)(C1)C2 [Compound 341, 2-(4-chloro-3-fluorophenoxy)-N-(3-{2-[4-(trifluoromethyl)phenyl]acetamido}bicyclo[1.1.1]pentan-1-yl)acetamide]",50 to 250
11,"COC(=O)[C@@H]1CC2(NC(=O)COc3ccc(Cl)c(F)c3)CCC1(NC(=O)COc1ccc(Cl)c(F)c1)CC2 [Compound 563, methyl (2R)-1,4-bis[2-(4-chloro-3-fluorophenoxy)acetamido]bicyclo[2.2.2]octane-2-carboxylate]",< 10
12,"O=C(COc1ccc(Cl)c(Cl)c1)NC12CC(NCC(=O)c3ccc(Cl)cc3)(C1)C2 [Compound 287, N-(3-{[2-(4-chlorophenyl)-2-oxoethyl]amino}bicyclo[1.1.1]pentan-1-yl)-2-(3,4-dichlorophenoxy)acetamide]",50 to 250
13,"O=C(COc1ccc(Cl)c(Cl)c1)NC12CC(NC(=O)COc3cnc(C4CC4)cn3)(C1)C2 [Compound 285, 2-[(5-cyclopropylpyrazin-2-yl)oxy]-N-{3-[2-(3,4-dichlorophenoxy)acetamido]-bicyclo[1.1.1]pentan-1-yl}acetamide]",50 to 250
14,"Cc1cc(OCC(=O)NC23CCC(NC(=O)COc4ccc(Cl)c(F)c4)(CC2)[C@@H](O)C3)ccc1F [Compound 814, 2-(4-chloro-3-fluorophenoxy)-N-{(2S)-4-[2-(4-fluoro-3-methylphenoxy)acetamido]-2-hydroxybicyclo[2.2.2]octan-1-yl}acetamide]",< 10
15,"O=C(COc1ccc(Cl)cc1)NC12CCC(NC(=O)COc3ccc(Cl)cc3)(CC1)CC2 [Compound 744, N,N′-(bicyclo[2.2.2]octane-1,4-diyl)bis[2-(4-chlorophenoxy)acetamide]]",< 10
16,"O=C(COc1ccc(Cl)c(CO)c1)NC12CCC(NC(=O)COc3ccc(Cl)c(CO)c3)(CC1)[C@@H](O)C2 [Compound 592, N,N′-[(2S)-2-hydroxybicyclo[2.2.2]octane-1,4-diyl]bis{2-[4-chloro-3-(hydroxymethyl)phenoxy]acetamide}]",500 to 2000

row,Compound,EC50 [nM]
1,"CC(=O)O[C@@H]1CC2(NC(=O)COc3ccc(Cl)c(F)c3)CCC1(NC(=O)COc1ccc(Cl)c(F)c1)CC2 (single isomer, unassigned) [Compound 449]",10 to 50
2,"O=C(COc1ccc(Cl)c(F)c1)NC12CCC(NC(=O)COc3nc(N4CCCCC4)nc(N4CCCCC4)n3)(CC1)[C@@H](O)C2 [Compound 523, 2-(4-chloro-3-fluorophenoxy)-N-[(3S)-4-(2-{[4,6-di(piperidin-1-yl)-1,3,5-triazin-2-yl]oxy}acetamido)-3-hydroxybicyclo[2.2.2]octan-1-yl]acetamide]",> 2000
3,"O=C(COc1ccc2c(c1)OC(F)(F)C(F)(F)O2)NC12CCC(NC(=O)COc3ccc(Cl)c(F)c3)(CC1)C(=O)N2 [Compound 689, 2-(4-chloro-3-fluorophenoxy)-N-(3-oxo-1-{2-[(2,2,3,3-tetrafluoro-2,3-dihydro-1,4-benzodioxin-6-yl)oxy]acetamido}-2-azabicyclo[2.2.2]octan-4-yl)acetamide]",50 to 250
4,"O=C(COc1ccc(Cl)c(F)c1)NC12CCC(NC(=O)COc3ccc(Cl)c(Cl)c3)(CC1)C(=O)N2 [Compound 601, 2-(4-chloro-3-fluorophenoxy)-N-{4-[2-(3,4-dichlorophenoxy)acetamido]-3-oxo-2-azabicyclo[2.2.2]octan-1-yl}acetamide]",< 10
5,"O=C(/C=C/c1ccc(OC(F)(F)F)cn1)NC12CC(NC(=O)COc3ccc(Cl)c(F)c3)(C1)C2 [Compound 376, (2E)-N-{3-[2-(4-chloro-3-fluorophenoxy)acetamido]bicyclo[1.1.1]pentan-1-yl}-3-[5-(trifluoromethoxy)pyridin-2-yl]prop-2-enamide]",250 to 500
6,"Cn1cc(OCC(=O)NC23CCC(NC(=O)COc4ccccn4)(CC2)C[C@@H]3O)cn1 [Compound 661, N-[(2S)-2-hydroxy-4-{2-[(pyridin-2-yl)oxy]acetamido}bicyclo[2.2.2]octan-1-yl]-2-[(1-methyl-1H-pyrazol-4-yl)oxy]acetamide]",> 2000
7,"O=C(COc1nc2c(s1)CCCC2)NC12CCC(NC(=O)COc3ccc(Cl)c(F)c3)(CC1)[C@@H](O)C2 [Compound 578, 2-(4-chloro-3-fluorophenoxy)-N-[(2S)-2-hydroxy-4-{2-[(4,5,6,7-tetrahydro-1,3-benzothiazol-2-yl)oxy]acetamido}bicyclo[2.2.2]octan-1-yl]acetamide]",> 2000
8,"O=C(COCc1n[nH]c(=O)o1)NC12CC(NC(=O)COc3ccc(Cl)c(F)c3)(C1)C2 [Compound 218, 2-(4-chloro-3-fluorophenoxy)-N-(3-{2-[(5-oxo-4,5-dihydro-1,3,4-oxadiazol-2-yl)methoxy]acetamido}bicyclo[1.1.1]pentan-1-yl)acetamide]",500 to 2000
9,"CN(CC(=O)NC12CC(NC(=O)COc3ccc(Cl)c(Cl)c3)(C1)C2)c1ccc(Cl)cc1 [Compound 200, N^2-(4-chlorophenyl)-N-{3-[2-(3,4-dichlorophenoxy)acetamido]-bicyclo[1.1.1]pentan-1-yl}-N^2-methylglycinamide]",> 2000
10,"O=C(COc1ccc2cn[nH]c2c1)NC12CC(NC(=O)COc3ccc4cn[nH]c4c3)(C1)C2 [Compound 109, N,N′-(bicyclo[1.1.1]pentane-1,3-diyl)bis{2-[(1H-indazol-6-yl)oxy]acetamide}]",500 to 2000
11,"O=C(COc1ccnc(C(F)(F)F)c1)NC12CC(NC(=O)COc3ccc4c(c3)OC(F)(F)O4)(C1)C2 [Compound 265, 2-[(2,2-difluoro-2H-1,3-benzodioxol-5-yl)oxy]-N-[3-(2-{[2-(trifluoromethyl)pyridin-4-yl]oxy}acetamido)bicyclo[1.1.1]pentan-1-yl]acetamide]",10 to 50
12,"O=C(CCCc1cccc(Cl)c1)NC12CC(NC(=O)COc3ccc(Cl)c(F)c3)(C1)C2 [Compound 543, N-{3-[2-(4-chloro-3-fluorophenoxy)acetamido]bicyclo[1.1.1]pentan-1-yl}-4-(3-chlorophenyl)butanamide]",50 to 250
13,"O=C(COc1ccc(Cl)c(F)c1)N[C@@H]1C[C@@H]2C[C@H]1C[C@H]2NC(=O)COc1ccc(Cl)c(F)c1 (racemic) [Compound 628, rac-N,N′-[(1R,2S,4R,5S)-bicyclo[2.2.1]heptane-2,5-diyl]bis[2-(4-chloro-3-fluorophenoxy)acetamide]]",< 10
14,"O=C(COc1ccc(Cl)c(F)c1)NC12CCC(NC(=O)Cc3cccnc3)(CC1)C(O)C2 (centres unmarked) [Compound 324, 2-(4-chloro-3-fluorophenoxy)-N-{3-hydroxy-4-[2-(pyridin-3-yl)acetamido]bicyclo[2.2.2]octan-1-yl}acetamide]",> 2000
15,"CCOC(=O)/C=C1\CC2(NC(=O)COc3ccc(Cl)c(F)c3)CCC1(NC(=O)COc1ccc(Cl)c(F)c1)CC2 [Compound 672, ethyl (2E)-{1,4-bis[2-(4-chloro-3-fluorophenoxy)acetamido]bicyclo[2.2.2]octan-2-ylidene}acetate]",10 to 50
16,"O=C(COc1ccc(Cl)c(F)c1)N[C@@]12CC[C@@](NC(=O)COc3ccc(Cl)c(F)c3)(C[C@@H]1O)[C@@H](O)C2 (racemic) [Compound 552, rac-N,N′-[(1R,2S,4R,5S)-2,5-dihydroxybicyclo[2.2.2]octane-1,4-diyl]bis[2-(4-chloro-3-fluorophenoxy)acetamide]]",< 10
